Results published in patent publication US6514912B1, “Use of benzo[C]quinolizine derivatives as plant growth regulators” (Applied Research Systems ARS Holding N.V., priority 1998, dated 2003).

Tested on: Arabidopsis Thaliana Columbia (Col 0) seeds
Experiment: Germination of Arabidopsis seeds in the dark, hypocotyledon length
Type: in vivo
Conditions: 10 days in the dark
Protocol: Batches of 25 seeds of Arabidopsis Thaliana Columbia (Col 0) were made to germinate in a suitable culture medium consisting of 0.5 ×MS at pH 5.7, containing 1% sucrose, 1×Vitamin B5 Gamborg, and 0.8% phyto-agar in the presence of the 1,2,5,6-tetrahydro-(11H)benzo[c]quinolizin-3-one inhibitor at the concentrations of 0, 0.01, 0.1, 1 and 10 micromolar. After two hours of treatment in light, the seeds were covered with three layers of aluminium foil and kept at 21° C. in a growth chamber. After 10 days in the dark, the length of the hypocotyledons was measured. […] A reduction of 50% in the hypocotyledons as compared to the controls was found for the seeds treated with a concentration of 0.1 micromolar of inhibitor.

Q: For `O=C1C=C2CCc3ccccc3N2CC1` [1,2,5,6-tetrahydro-(11H)benzo[c]quinolizin-3-one], which “length of the hypocotyledons versus inhibitor concentration” value (0.01, 0.1, 1 and 10 micromolar, untreated approximately 15-16 mm) is on record?
A: progressively shorter as the concentration of inhibitor used was increased

Q: What about the “reduction in the hypocotyledons as compared to the controls” value (0.1 micromolar inhibitor in culture medium, 21° C., batches of 25 seeds) of the same compound?
A: 50%
